One data set concerns total STAT3. The data set is described as follows: Total STAT3 ELISA of spleen extracts of TUBO tumor bearing BALB/neuT mice after Sutent. It is filed as in vivo, mouse. As to the method: (§1) The acute effect of Sutent on the phosphorylation status of STAT3 in the spleen was investigated in a subcutaneous tumor mouse model to evaluate the direct immunomodulatory effects of the compound. Briefly, 10-12 week old female BALB/neuT mice were implanted with 1e6 TUBO cells subcutaneously in the right flank. After forty one days post tumor implant, Sutent was given by oral gavage at 20 mg/kg. At 0, 1, 3, 7 and 24 hrs post Sutent dosing, three animals per timepoint were sacrificed under IAUCUC guidelines and spleens were immediately snap frozen in liquid nitrogen to preserve the phosphorylation status. Spleens from female BALB/c mice were snap frozen to use as healthy mice controls.
(§2) Snap frozen spleens were homogenized at 100 mg tissue per 500 μL lysis buffer (70 mM NaCl, 50 mM β-glycerol phosphate, 10 mM HEPES, 1% Triton X-100, 100 mM Na3VO4, 100 mM PMSF, 1 mg/mL leupeptin) using a polytron tissue homogenizer. Resulting digests were centrifuged at 10,000 g for 15 minutes. The supernatant was isolated and protein concentrations were determined using BCA protein assay kit (Pierce, Rockford, Ill.). Forty micrograms of protein were added to each well of either a total STAT3 (eBioscience, cat no. 85-86101-11) or phosphor-STAT3 (eBioscience, cat no. 85-86102-11) ELISA Kit. Relative levels of either protein were compared with standards provided in the kit and with standards purchased independently (Signaling Technologies, cat no. 9333-S).
(In general: An ELISA detects its analyte on a solid surface through an enzyme-linked reagent.)

The next data set has as its system phosphorylated STAT3. The data set is described as follows: Phosphor-STAT3 ELISA of spleen extracts of TUBO tumor bearing BALB/neuT mice after Sutent. It is filed as in vivo, mouse. The procedure:
as §1, §2

A further data set has as its system subcutaneous TUBO tumors. The data set is described as follows: Subcutaneous TUBO tumor growth and survival in BALB/neuT mice, sunitinib malate with cancer vaccine. As to conditions: FIG. 33D; Sutent 20 mg/kg for 34 days combined with cancer vaccine. It is filed as in vivo, mouse.
For data set [1] the following is noted: Mendel et al.; cited from earlier work.
A short description of data set [2]: Kinetics of blood sunitinib by LC/MS/MS in BALB/neuT mice with subcutaneous TUBO tumors. It is filed as in vivo, mouse. As to conditions: for concentration at 2 h: peak at 2 hrs. The procedure: The kinetics of blood sunitinib was investigated in BALB/neuT mice with subcutaneous TUBO tumors. Briefly, 20 mice per each treatment group were given Sutent orally, at 20 mg/kg once a day (SID) or at 10 mg/kg twice a day (BID) with 6 hr intervals, 6 days after tumor implantation. Submandibular blood from 2-3 mice was collected into lithium heparin tubes at several time points after Sutent dosing as indicated (0, 2, 4, 6, 8, 10, 12, and 24 hr). The plasma supernatant was recovered from the tubes after centrifugation at ×1000 g for 15 min. and the sunitinib levels from the plasma samples were measured by LC/MS/MS. The mean and standard error of the mean of each group at each time point is plotted.

In data set [3] the test system is Myeloid Derived Suppressor Cells (MDSC). The data set is described as follows: Adoptively transferred MDSC recovered from spleen of BALB/c mice dosed with sunitinib. It is filed as in vivo, mouse. As to conditions: CFSE+, CD3−, GR1+, CD11b+ cells, 2 days post adoptive transfer, vehicle 17470 +/− 2017.
Method: To generate MDSC enriched splenocytes, TUBO cells (1×10^6) were implanted into the flanks of 5 BALB/neuT mice, and left for approx. 20-30 days until tumor volume reached between 1000-1500 mm^3. Mice were then sacrificed, spleens removed and the MDSC enriched splenocytes recovered. Splenocytes were labeled for 10 minutes with 5 μM CFSE, washed with PBS and counted. Labeled cells were subsequently resuspended at 5×10^7 splenocytes/ml in PBS solution and adoptively transferred via an i.v. tail vein injection into naïve BALB/c recipient mice. Three days prior to adoptive transfer, the recipient mice began bi-daily dosing with vehicle or sunitinib malate (Sutent) at 5 mg/kg, 10 mg/kg and 20 mg/kg. Following adoptive transfer, recipient mice continued to receive bi-daily dosing of Vehicle or sunitinib for two further days, after which point the mice were sacrificed, spleens removed, splenocytes recovered and processed for phenotypic analysis.
Splenocytes were counted and resuspended at 5×10^6 cells/ml in FACS staining buffer (PBS, 0.2% (w/v) bovine serum albumin, and 0.02% (w/v) Sodium Azide). For flow cytometry staining of splenocytes, 2.5×10^6 cells were first incubated with anti-bodies to CD16/CD32, 10 minutes at 4° C., to block Fc receptors and minimize non-specific binding. Splenocytes were then stained for 20 minutes at 4° C. with appropriate fluorophore conjugated antibodies (Biolegend) to murine cell surface markers. For T cells (anti-CD3 (Pacific Blue), clone 17A2) and for MDSC (anti-GR-1 (APC), clone RB6-8C5 and anti-CD11b (PerCp Cy5.5), clone M1/70). A live/dead stain was also included. […] To monitor the effect of Sunitinib or Vehicle on the adoptively transferred MDSC survival, we calculated the percentage of CFSE+,CD3−,GR1+,CD11b+ in the live, singlet gate. We then determined the number of adoptively transferred MDSC per spleen by calculating what actual cell number the percentage represented of total splenocytes count. Data was analyzed by FloJo and Graph pad software.
For data set [4] the following is noted: intravenous infusion, cited from earlier work.
The test system of data set [5] is hPSMA full-length protein. The data set is described as follows: IFN-γ ELISPOT, hPSMA modified versus full-length DNA vaccine in C57BL/6 mice. It is filed as in vivo, human. As to conditions: Example 7, FIG. 26; C57BL/6, PMED days 0, 14, 28; day 35. From the text:
The immune responses induced by DNA vaccination using a construct encoding an immunogenic PSMA polypeptide (the “human PSMA modified antigen” or “hPSMA modified”) consisting 15-750 amino acids (aa) of the native human PSMA protein of SEQ ID NO: 1 were compared with those induced by the native human full-length PSMA protein (hPSMA full length). Groups of female C57BL/6 mice or female Pasteur (HLA-A2/DR1) transgenic mice were primed on day 0 and boosted on days 14, 28 by PMED administration with a 2 μg dose of a DNA vaccine encoding either hPSMA full-length or hPSMA modified protein. Mice were bled and sacrificed on day 35 (7 days after the third vaccination) and T cell immune responses against the hPSMA full-length protein were determined in splenocytes by IFN-γ ELISPOT assay. For C57BL/6 mice, single cell suspensions of 5×10^5 splenocytes from individual animals were plated per well with […] purified hPSMA protein, 5×10^4 TRAMP-C2 cells alone, or TRAMP-C2 cells expressing hPSMA or a PSMA-PSA-PSCA fusion protein. […] Responses in Pasteur mice were also determined using 10 μg/ml purified PSMA protein or 5×10^4 SK-Mel5 cells that had been transduced with Adenoviral vectors expressing a control protein (Ad-eGFP) or the full-length human PSMA protein (Ad-hPSMA). […] The number of IFN-γ SFC was counted by a CTL reader. […]

Another data set deals with human PSMA. The data set is described as follows: ELISA, serum anti-PSMA antibody titers after PMED DNA vaccination. It is filed as in vivo. As to conditions: Example 7, FIG. 28; Pasteur and C57BL/6 mice; day 35; within the same strain. The procedure:
Serum was subjected to enzyme-linked immunosorbent assays (ELISA) to determine the anti-PSMA and anti-PSCA antibody titers. In brief, ELISA plates were coated with 1 μg/ml of human PSMA or PSCA and incubated overnight at 4° C. Plates were then blocked and incubated at RT for 1 h with 1% bovine serum albumin (BSA). Each serum sample was serially diluted in duplicate starting at a 1:100 dilution and incubated for 1 h at RT. After washing, a horseradish-peroxidise (HRP)-conjugated goat anti-mouse polyclonal IgG antibody was incubated at RT for 1 h. After washing, the TMB Peroxidase EIA-Substrate was incubated at RT for 30 min. The colorimetric reaction was stopped by addition 1N sulfuric acid and the absorbance then read at 450 nm. Titration curves were plotted for each serum sample (sample dilution versus absorbance). The serum titer (subsequently transformed into reciprocal titer) was then taken as the most dilute serum sample tested with an optical density (OD) value of above the lower limit of detection (LLOD; background plus 3 standard deviations) or the serum dilution calculated to achieve an OD value of 1.0. […]
The anti-PSMA and anti-PSCA antibody titers in the serum was determined using ELISA as described in Example 5. […]
Antibody responses induced by the modified and full-length PSMA vaccines were measured in serum from each animal collected on day 35. […]

The next data set deals with 293 cells. The data set is described as follows: Expression of PSMA constructs in transfected 293 cells by FACS. As to conditions: 293 cells transfected with PJV7563 vector, stained with mouse anti-PSMA antibody three days later; cell surface expression. It is filed as cell-based. The procedure:
The expression of the PSMA cytosolic, secreted, and modified antigens was determined by FACS. Mammalian 293 cells were transfected with the PJV7563 PMED vectors encoding the various immunogenic PSMA polypeptides. Three days later, the 293 cells were stained with mouse anti-PSMA antibody, followed with a fluorescent conjugated (FITC) rat anti-mouse secondary antibody.
On the technique in general: In flow cytometry, cells or beads pass a laser one at a time.

The mark [6] stands for this setting: 1 hr after Sutent 20 mg/kg oral gavage.
Where [7] appears, read: 3 hrs after Sutent 20 mg/kg oral gavage.
[8] abbreviates: 7 hrs after Sutent 20 mg/kg oral gavage.
[9] abbreviates: 24 hrs after Sutent 20 mg/kg oral gavage.

The values that follow come from patent publication US11110158B2, “Prostate-associated antigens and vaccine-based immunotherapy regimens” (Pfizer Inc., priority 2012, dated 2021).

Where “and” joins values, the source holds several entries; their conditions need not be identical. Equal values may be shown once. Read-outs that look alike come from different tables or passages of the source.

Consider `CCN(CC)CCNC(=O)c1c(C)[nH]c(/C=C2\C(=O)Nc3ccc(F)cc32)c1C` [Sunitinib, butanedioic acid, hydroxy-, (2S)-, compound with N-[2-(diethylamino)ethyl]-5-[(Z)-(5-fluoro-1,2-dihydro-2-oxo-3H-indol-3-ylidine)methyl]-2,4-dimethyl-1H-pyrrole-3-carboxamide (1:1)], for which the “Total STAT3 relative level, Mean” value worked out at 0.09 in the data set on total STAT3 (setting [6]), 0.13 in the data set on total STAT3 (setting [7]), 0.08 in the data set on total STAT3 (setting [8]) and 0.08 with total STAT3 (setting [9]). The “Total STAT3 relative level, individual values” in the data set on total STAT3 (setting [6]) was 0.12 and 0.08 (2×); in the data set with total STAT3 (setting [7]), 0.15 and 0.09 and 0.16; in the data set with total STAT3 (setting [8]), 0.10 and 0.07 and 0.08; in the data set with total STAT3 (setting [9]), 0.08. Further, the “Phospho-STAT3 relative level, Mean” value in the data set with phosphorylated STAT3 (setting [6]) is given as 0.23; with phosphorylated STAT3 (setting [7]), 0.19; in the data set on phosphorylated STAT3 (setting [8]) it was 0.27; in the data set with phosphorylated STAT3 (setting [9]), 1.44. Also, the “Phospho-STAT3 relative level, individual values” in the data set on phosphorylated STAT3 (setting [6]) is 0.26 and 0.25 and 0.19; in the data set with phosphorylated STAT3 (setting [7]), 0.19 and 0.15 and 0.22; with phosphorylated STAT3 (setting [8]) it was 0.19 and 0.31 and 0.29; with phosphorylated STAT3 (setting [9]), 1.54 and 1.30 and 1.47. In the data set with subcutaneous TUBO tumors, the “animals with significantly impaired progression of the tumor after discontinuation of Sutent treatment” value was 60 % of the animals. In addition, in [1], the “minimum sunitinib blood level necessary to effectively inhibit tumor growth in monotherapy” value was 50 ng/mL. Besides, the “time by which sunitinib cleared the blood” value in [2] (10 mg/kg BID orally, after the second dose) was not above 18 h; in [2] (20 mg/kg SID orally, post Sutent dosing) it was not above 12 h. For the same molecule, the concentration at 2 h was more than 50 ng/mL in data set [2] (BALB/neuT, mouse, plasma, oral, 10 mg/kg BID (6 hr interval) orally, read-out: blood sunitinib level) and more than 50 ng/mL in data set [2] (BALB/neuT, mouse, plasma, oral, 20 mg/kg SID orally, read-out: blood sunitinib level). Also, the concentration at 4 h in data set [2] (BALB/neuT, mouse, plasma, oral, 10 mg/kg BID orally, by 4 hrs, read-out: blood sunitinib level) is less than 50 ng/mL. Further, in [2] (BALB/neuT, mouse, plasma, oral, 20 mg/kg SID orally, at 6 hrs, read-out: blood sunitinib level), the concentration at 6 h stood at 50 ng/mL. Also, the “MDSC #/spleen Mean +/− SEM” value is listed as 10980 +/− 1082 in data set [3] (Sunitinib 5 mg/kg bi-daily), 4207 +/− 338 in data set [3] (Sunitinib 10 mg/kg bi-daily) and 4440 +/− 440 in data set [3] (Sunitinib 20 mg/kg bi-daily).
For the molecule “CP-870893: fully human agonistic CD40 monoclonal antibody, SEQ ID NO: 40 and 41”, the “maximum tolerated dose (MTD)” value in [4] (patients with advanced solid tumors) is 0.2 mg/kg. Also, the dose-limiting toxicities entry in [4] (phase I clinical study) is “grade 3 CRS and grade 3 urticaria”.
With “full length human PSMA (SEQ ID NO: 1): native human full-length PSMA protein (aa 1-750), SEQ ID NO: 1; tested as DNA vaccine”, the “IFN-γ T cell responses to TRAMP C2-PSMA or purified hPSMA protein” value in data set [5] is on record as “equivalent T cell immune responses”. In addition, the “serum anti-PSMA antibody titers” value with human PSMA was “equivalent anti-PSMA antibody titer”. The “Average mean fluorescent intensity” value with 293 cells is 6425.
